From ChEMBL document CHEMBL5584348, “Exploring Degradation of Intrinsically Disordered Protein Yes-Associated Protein Induced by Proteolysis TArgeting Chimeras” (J Med Chem, 2024)
Values belong to the compound of their own block, whether it stands above or below them. Activity calls are given as the source filed them. No cut-off for these calls is given here.

What was measured:
NCI-H226 [1] = assay: Antiproliferative activity against human NCI-H226 cells assessed as cell killing at 10 uM incubated for 3 days by CCK-8 assay; assay type: functional, cell-based; conditions: time 3.0 day
Huh-7 [2] = assay: Antitumor activity against human Huh-7 cells xenografted in immunodeficient male NSG mouse assessed as tumor growth inhibition at 100 mg/kg, po administered every 3 days for 24 days; assay type: functional; conditions: Huh-7, 576 h, time 24 day, read-out: TGI
NCI-H226 [3] = assay: Antiproliferative activity against human NCI-H226 cells assessed as cell growth inhibition incubated for 3 days by CCK-8 assay; assay type: functional, cell-based; conditions: time 3.0 day
[4] = target: T1, Protein cereblon/Transcriptional coactivator YAP1 (Homo sapiens) (UniProt P46937+Q96SW2); assay: PROTAC activity at YAP/CRBN in human NCI-H226 cells assessed as induction of YAP degradation at 10 uM incubated for 48 hrs by Western blot analysis; assay type: cell-based
T1 sequence (P46937 whole entry, looked up): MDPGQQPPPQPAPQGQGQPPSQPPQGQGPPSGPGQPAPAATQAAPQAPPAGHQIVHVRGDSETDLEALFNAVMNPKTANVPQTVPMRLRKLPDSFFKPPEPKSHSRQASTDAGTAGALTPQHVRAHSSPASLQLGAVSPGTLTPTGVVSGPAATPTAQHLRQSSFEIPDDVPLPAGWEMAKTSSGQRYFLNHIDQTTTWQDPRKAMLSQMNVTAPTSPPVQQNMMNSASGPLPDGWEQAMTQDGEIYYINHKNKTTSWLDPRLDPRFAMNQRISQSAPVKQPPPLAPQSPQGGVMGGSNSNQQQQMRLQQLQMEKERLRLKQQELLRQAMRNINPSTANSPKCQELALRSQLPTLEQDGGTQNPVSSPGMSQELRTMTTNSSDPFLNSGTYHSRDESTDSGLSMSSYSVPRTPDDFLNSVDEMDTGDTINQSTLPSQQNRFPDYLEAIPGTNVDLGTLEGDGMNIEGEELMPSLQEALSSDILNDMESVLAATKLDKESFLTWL
T1 sequence (Q96SW2 whole entry, looked up): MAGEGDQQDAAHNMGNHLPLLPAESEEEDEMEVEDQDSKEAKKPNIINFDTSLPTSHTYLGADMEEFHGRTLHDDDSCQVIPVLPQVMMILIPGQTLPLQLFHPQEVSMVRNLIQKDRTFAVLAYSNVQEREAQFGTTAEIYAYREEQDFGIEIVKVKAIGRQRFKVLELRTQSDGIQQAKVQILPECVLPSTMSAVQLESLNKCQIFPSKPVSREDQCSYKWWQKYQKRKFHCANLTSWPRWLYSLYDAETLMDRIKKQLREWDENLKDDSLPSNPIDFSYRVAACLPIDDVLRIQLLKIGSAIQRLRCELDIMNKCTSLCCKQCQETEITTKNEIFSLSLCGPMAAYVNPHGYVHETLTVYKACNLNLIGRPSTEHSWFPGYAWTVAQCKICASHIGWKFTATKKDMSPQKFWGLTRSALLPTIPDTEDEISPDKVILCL

[5] = target: T2, von Hippel-Lindau disease tumor suppressor/Transcriptional coactivator YAP1 (Homo sapiens, UniProt P40337+P46937); assay: PROTAC activity at YAP/VHL in human NCI-H226 cells assessed as induction of YAP degradation 10 uM incubated for 48 hrs by Western blot analysis; assay type: cell-based
Target sequence in this assay (P40337 whole entry, looked up): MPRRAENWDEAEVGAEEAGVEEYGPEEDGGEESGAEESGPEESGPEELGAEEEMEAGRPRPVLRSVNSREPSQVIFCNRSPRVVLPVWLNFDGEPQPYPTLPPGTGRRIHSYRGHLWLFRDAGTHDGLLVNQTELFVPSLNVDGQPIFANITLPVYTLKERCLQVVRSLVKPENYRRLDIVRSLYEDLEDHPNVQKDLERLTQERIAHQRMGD
Target sequence in this assay (P46937 whole entry, looked up): as the sequence (P46937 whole entry, looked up) above

NCI-H226 [6] = assay: Antiproliferative activity against human NCI-H226 cells assessed as cell killing upto 3.13 uM incubated for 4 days by CCK-8 assay; assay type: functional, cell-based; conditions: time 4.0 day
[7] = target: Transcriptional coactivator YAP1 (Homo sapiens) (UniProt P46937); assay: Induction of YAP degradation in human NCI-H290 cells at 5 uM relative to control; assay type: cell-based
Chain of Transcriptional coactivator YAP1 (Homo sapiens) (P46937 whole entry): as the sequence (P46937 whole entry, looked up) above

NCI-H226 [8] = assay: Antiproliferative activity against human NCI-H226 cells assessed as cell killing at 12.5 uM incubated for 3 days by CCK-8 assay; assay type: functional, cell-based; conditions: time 3.0 day
[9] = target: T1, Protein cereblon/Transcriptional coactivator YAP1 (Homo sapiens); assay: PROTAC activity at YAP/CRBN in human NCI-H226 cells assessed as effect on YAP level at 10 uM incubated for 48 hrs by Western blot analysis; assay type: cell-based
[10] = target: Transcriptional enhancer factor TEF-1 (Homo sapiens) (UniProt P28347); assay: Inhibition of TEAD transcriptional activity in human HEK293T cells incubated for 24 hrs by luciferase reporter assay; assay type: cell-based
Chain of Transcriptional enhancer factor TEF-1 (Homo sapiens) (P28347 whole entry): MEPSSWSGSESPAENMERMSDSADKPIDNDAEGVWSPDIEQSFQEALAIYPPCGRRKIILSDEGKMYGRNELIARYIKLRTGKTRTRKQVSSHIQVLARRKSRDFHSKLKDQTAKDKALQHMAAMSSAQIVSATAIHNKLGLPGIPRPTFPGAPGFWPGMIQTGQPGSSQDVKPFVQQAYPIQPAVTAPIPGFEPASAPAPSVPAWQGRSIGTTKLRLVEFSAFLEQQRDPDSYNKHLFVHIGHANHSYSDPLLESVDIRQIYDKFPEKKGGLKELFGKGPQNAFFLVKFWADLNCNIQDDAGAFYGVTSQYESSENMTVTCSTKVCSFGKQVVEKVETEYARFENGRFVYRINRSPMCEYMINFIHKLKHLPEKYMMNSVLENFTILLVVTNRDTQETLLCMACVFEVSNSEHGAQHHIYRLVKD

NCI-H226 [11] = assay: Antiproliferative activity against NF2 deficient- human NCI-H226 cells assessed as maximum cell growth inhibition incubated for 4 days by CCK-8 assay relative to control; assay type: functional; conditions: time 4 day
Huh-7 [12] = assay: Antiproliferative activity against human Huh-7 cells overexpressing YAP assessed as cell growth inhibition incubated for 4 days by CCK-8 assay; assay type: functional, cell-based; conditions: Huh-7, 96 h
NCI-H226 [13] = assay: Antiproliferative activity against NF2 deficient- human NCI-H226 cells assessed as cell growth inhibition incubated for 4 days by CCK-8 assay; assay type: functional, cell-based; conditions: NCI-H226, 96 h
[14] = target: T1, Protein cereblon/Transcriptional coactivator YAP1 (Homo sapiens); assay: PROTAC activity at YAP/CRBN in human NCI-H226 cells assessed as induction of YAP degradation 10 uM incubated for 48 hrs by Western blot analysis; assay type: cell-based
[15] = target: T2, von Hippel-Lindau disease tumor suppressor/Transcriptional coactivator YAP1; assay: PROTAC activity at YAP/VHL in human NCI-H226 cells assessed as induction of YAP degradation incubated for 48 hrs by Western blot analysis; assay type: cell-based
Target sequence in this assay (P40337 whole entry): as the sequence (P40337 whole entry, looked up) above
Target sequence in this assay (P46937 whole entry): as the sequence (P46937 whole entry, looked up) above

[16] = target: T2, von Hippel-Lindau disease tumor suppressor/Transcriptional coactivator YAP1; assay: PROTAC activity at YAP/VHL in human NCI-H226 cells assessed as reduction in CTGF expression incubated for 48 hrs by Western blot analysis; assay type: cell-based; conditions: dose 2.5-20 µM
Target sequence in this assay (P40337 whole entry, looked up): as the sequence (P40337 whole entry, looked up) above
Target sequence in this assay (P46937 whole entry, looked up): as the sequence (P46937 whole entry, looked up) above

[17] = target: T2, von Hippel-Lindau disease tumor suppressor/Transcriptional coactivator YAP1; assay: PROTAC activity at YAP/VHL in human NCI-H226 cells assessed as induction of YAP degradation at 10 uM incubated for 48 hrs by Western blot analysis; assay type: cell-based
Target sequence in this assay (P40337 whole entry, looked up): as the sequence (P40337 whole entry, looked up) above
Target sequence in this assay (P46937 whole entry, looked up): as the sequence (P46937 whole entry, looked up) above

[18] = target: T2, von Hippel-Lindau disease tumor suppressor/Transcriptional coactivator YAP1; assay: PROTAC activity at YAP/VHL in human NCI-H226 cells assessed as effect on YAP level at 10 uM incubated for 48 hrs by Western blot analysis; assay type: cell-based
Target sequence in this assay (P40337 whole entry, looked up): as the sequence (P40337 whole entry, looked up) above
Target sequence in this assay (P46937 whole entry, looked up): as the sequence (P46937 whole entry, looked up) above

[19] = target: T2, von Hippel-Lindau disease tumor suppressor/Transcriptional coactivator YAP1; assay: PROTAC activity at YAP/VHL in human NCI-H226 cells assessed as reduction in YAP level at 10 uM incubated for 48 hrs by Western blot analysis; assay type: cell-based
Target sequence in this assay (P40337 whole entry, looked up): as the sequence (P40337 whole entry, looked up) above
Target sequence in this assay (P46937 whole entry, looked up): as the sequence (P46937 whole entry, looked up) above

Structure (SMILES): COc1cc(-c2cc(-c3ccccc3)nc3c2CC(=O)Nc2ccccc2-3)ccc1OCCCCCC(=O)N[C@H](C(=O)N1C[C@H](O)C[C@H]1C(=O)N[C@@H](C)c1ccc(-c2scnc2C)cc1)C(C)(C)C
Activity (NCI-H226 [1]): inactive

Structure (SMILES): COc1cc(-c2cc(-c3ccccc3)nc3c2CC(=O)Nc2ccccc2-3)ccc1OCCCCCCCC(=O)N[C@H](C(=O)N1C[C@H](O)C[C@H]1C(=O)N[C@@H](C)c1ccc(-c2scnc2C)cc1)C(C)(C)C
Activity (NCI-H226 [1]): inactive

Structure (SMILES): CNC(=O)c1cc(Oc2ccc(NC(=O)Nc3ccc(Cl)c(C(F)(F)F)c3)cc2)ccn1 [SORAFENIB]
inhibition in vivo at 100 mg/kg (Huh-7 [2]): 76%

Activity [4]: inactive
Structure (SMILES): COc1ccc(-c2cc(-c3ccccc3)nc3c2CC(=O)Nc2ccccc2-3)cc1OCC(=O)NCCOCCOCCNc1cccc2c1C(=O)N(C1CCC(=O)NC1=O)C2=O (configuration not stated)
Activity (NCI-H226 [3]): Active | Activity (NCI-H226 [1]): inactive

Activity [5]: inactive
Structure (SMILES): COc1ccc(-c2cc(-c3ccc(OCCCCCCCCCC(=O)N[C@H](C(=O)N4C[C@H](O)C[C@H]4C(=O)N[C@@H](C)c4ccc(-c5scnc5C)cc4)C(C)(C)C)cc3)nc3c2CC(=O)Nc2ccccc2-3)cc1OC
Activity (NCI-H226 [6]): inactive

Activity [7]: < 50%
Structure (SMILES): CN[C@@H](C)C(=O)N[C@H](C(=O)N1CCC[C@H]1c1nc(C(=O)c2cccc(OCCOCCNC(=O)[C@]34CC[C@@H](C(C)=O)[C@@H]3[C@H]3CC[C@@H]5[C@@]6(C)CC[C@H](O)C(C)(C)[C@@H]6CC[C@@]5(C)[C@]3(C)CC4)c2)cs1)C1CCCCC1

Structure (SMILES): COc1cc(-c2cc(-c3ccccc3)nc3c2CC(=O)Nc2ccccc2-3)ccc1OCCOCCC(=O)N[C@H](C(=O)N1C[C@H](O)C[C@H]1C(=O)N[C@@H](C)c1ccc(-c2scnc2C)cc1)C(C)(C)C
Activity (NCI-H226 [1]): inactive

Activity [9]: inactive
Structure (SMILES): COc1cc(-c2cc(-c3ccccc3)nc3c2CC(=O)Nc2ccccc2-3)ccc1OCC(=O)NCCOCCOCCOCCNc1cccc2c1C(=O)N(C1CCC(=O)NC1=O)C2=O (configuration not stated)
Activity (NCI-H226 [8]): inactive

TEAD transcriptional inhibition (active/inactive call) [10]: Active
Structure (SMILES): COc1ccc(-c2cc(-c3ccccc3)nc3c2CC(=O)Nc2ccccc2-3)cc1O

TEAD transcriptional inhibition (active/inactive call) [10]: Active
Structure (SMILES): COc1cc(-c2cc(-c3ccccc3)nc3c2CC(=O)Nc2ccccc2-3)ccc1O

IC50 (Huh-7 [12]): 69 µM | IC50 (NCI-H226 [13]): 3.9 µM
Structure (SMILES): COc1ccc(-c2cc(-c3ccccc3)nc3c2CC(=O)Nc2ccccc2-3)cc1OC
inhibition (INH) (NCI-H226 [11]): 95%

Activity [4]: inactive
Structure (SMILES): COc1ccc(-c2cc(-c3ccccc3)nc3c2CC(=O)Nc2ccccc2-3)cc1OCC(=O)NCCOCCOCCOCCNc1cccc2c1C(=O)N(C1CCC(=O)NC1=O)C2=O (configuration not stated)
Activity (NCI-H226 [3]): Active | Activity (NCI-H226 [1]): inactive

Structure (SMILES): COc1cc(-c2cc(-c3ccccc3)nc3c2CC(=O)Nc2ccccc2-3)ccc1OCC(=O)NCCOCCOCCNc1cccc2c1C(=O)N(C1CCC(=O)NC1=O)C2=O (configuration not stated)
Activity (NCI-H226 [1]): inactive

Activity [14]: inactive
Structure (SMILES): COc1ccc(-c2cc(-c3ccc(OCC(=O)NCCOCCOCCNc4cccc5c4C(=O)N(C4CCC(=O)NC4=O)C5=O)cc3)nc3c2CC(=O)Nc2ccccc2-3)cc1OC (configuration not stated)
Activity (NCI-H226 [6]): inactive

DC50 [15]: 14.9 µM | Activity [16]: Dose-Dependent Effect
Structure (SMILES): COc1cc(-c2cc(-c3ccccc3)nc3c2CC(=O)Nc2ccccc2-3)ccc1OCCOCC(=O)N[C@H](C(=O)N1C[C@H](O)C[C@H]1C(=O)N[C@@H](C)c1ccc(-c2scnc2C)cc1)C(C)(C)C
Activity (NCI-H226 [1]): inactive

Activity [14]: inactive
Structure (SMILES): COc1ccc(-c2cc(-c3ccc(OCC(=O)NCCOCCOCCOCCNc4cccc5c4C(=O)N(C4CCC(=O)NC4=O)C5=O)cc3)nc3c2CC(=O)Nc2ccccc2-3)cc1OC (configuration not stated)
Activity (NCI-H226 [6]): inactive

Activity [17]: inactive
Structure (SMILES): COc1ccc(-c2cc(-c3ccccc3)nc3c2CC(=O)Nc2ccccc2-3)cc1OCCOCCOCCC(=O)N[C@H](C(=O)N1C[C@H](O)C[C@H]1C(=O)N[C@@H](C)c1ccc(-c2scnc2C)cc1)C(C)(C)C
Activity (NCI-H226 [3]): Active | Activity (NCI-H226 [1]): inactive

Activity [17]: inactive
Structure (SMILES): COc1ccc(-c2cc(-c3ccccc3)nc3c2CC(=O)Nc2ccccc2-3)cc1OCCOCC(=O)N[C@H](C(=O)N1C[C@H](O)C[C@H]1C(=O)N[C@@H](C)c1ccc(-c2scnc2C)cc1)C(C)(C)C
Activity (NCI-H226 [3]): Active | Activity (NCI-H226 [1]): inactive

Activity [14]: inactive
Structure (SMILES): COc1ccc(-c2cc(-c3ccc(OCC(=O)NCCOCCNc4cccc5c4C(=O)N(C4CCC(=O)NC4=O)C5=O)cc3)nc3c2CC(=O)Nc2ccccc2-3)cc1OC (configuration not stated)
Activity (NCI-H226 [6]): inactive

TEAD transcriptional inhibition (active/inactive call) [10]: Active
Structure (SMILES): COc1ccc(-c2cc(-c3ccccc3)nc3c2CC(=O)Nc2ccccc2-3)cc1OCCOC(C)=O

Activity [18]: inactive
Structure (SMILES): COc1cc(-c2cc(-c3ccccc3)nc3c2CC(=O)Nc2ccccc2-3)ccc1OCCCCCCCCCC(=O)N[C@H](C(=O)N1C[C@H](O)C[C@H]1C(=O)N[C@@H](C)c1ccc(-c2scnc2C)cc1)C(C)(C)C
Activity (NCI-H226 [8]): inactive

Activity [5]: inactive
Structure (SMILES): COc1ccc(-c2cc(-c3ccc(OCCCCCCCC(=O)N[C@H](C(=O)N4C[C@H](O)C[C@H]4C(=O)N[C@@H](C)c4ccc(-c5scnc5C)cc4)C(C)(C)C)cc3)nc3c2CC(=O)Nc2ccccc2-3)cc1OC
Activity (NCI-H226 [6]): inactive

TEAD transcriptional inhibition (active/inactive call) [10]: Active
Structure (SMILES): CC(=O)c1ccc(OCc2ccccc2)cc1

Activity [5]: inactive
Structure (SMILES): COc1ccc(-c2cc(-c3ccc(OCCCCCC(=O)N[C@H](C(=O)N4C[C@H](O)C[C@H]4C(=O)N[C@@H](C)c4ccc(-c5scnc5C)cc4)C(C)(C)C)cc3)nc3c2CC(=O)Nc2ccccc2-3)cc1OC
Activity (NCI-H226 [6]): inactive

Activity [19]: Active
Structure (SMILES): COc1cc(-c2cc(-c3ccccc3)nc3c2CC(=O)Nc2ccccc2-3)ccc1OCCOCCOCCOCCC(=O)N[C@H](C(=O)N1C[C@H](O)C[C@H]1C(=O)N[C@@H](C)c1ccc(-c2scnc2C)cc1)C(C)(C)C
Activity (NCI-H226 [1]): inactive

Activity [4]: inactive
Structure (SMILES): COc1ccc(-c2cc(-c3ccccc3)nc3c2CC(=O)Nc2ccccc2-3)cc1OCC(=O)NCCOCCNc1cccc2c1C(=O)N(C1CCC(=O)NC1=O)C2=O (configuration not stated)
Activity (NCI-H226 [3]): Active | Activity (NCI-H226 [1]): inactive

TEAD transcriptional inhibition (active/inactive call) [10]: Active
Structure (SMILES): COc1ccc(-c2cc(-c3ccccc3)nc3c2CC(=O)Nc2ccccc2-3)cc1OCc1ccccc1

TEAD transcriptional inhibition (active/inactive call) [10]: Active
Structure (SMILES): COc1cc(-c2cc(-c3ccccc3)nc3c2CC(=O)Nc2ccccc2-3)ccc1OCCOC(C)=O

Activity [17]: inactive
Structure (SMILES): COc1ccc(-c2cc(-c3ccccc3)nc3c2CC(=O)Nc2ccccc2-3)cc1OCCOCCC(=O)N[C@H](C(=O)N1C[C@H](O)C[C@H]1C(=O)N[C@@H](C)c1ccc(-c2scnc2C)cc1)C(C)(C)C
Activity (NCI-H226 [3]): Active | Activity (NCI-H226 [1]): inactive

Structure (SMILES): COc1cc(-c2cc(-c3ccccc3)nc3c2CC(=O)Nc2ccccc2-3)ccc1OCC(=O)NCCOCCNc1cccc2c1C(=O)N(C1CCC(=O)NC1=O)C2=O (configuration not stated)
Activity (NCI-H226 [1]): inactive

Activity [5]: inactive
Structure (SMILES): COc1ccc(-c2cc(-c3ccc(OCCOCCOCCC(=O)N[C@H](C(=O)N4C[C@H](O)C[C@H]4C(=O)N[C@@H](C)c4ccc(-c5scnc5C)cc4)C(C)(C)C)cc3)nc3c2CC(=O)Nc2ccccc2-3)cc1OC
Activity (NCI-H226 [6]): inactive
